Data: patent publication US4939173A, “Aryloxy alkanols as anti-retrovirus agents” (Merrell Dow Pharmaceuticals Inc., priority 1988, dated 1990)
In brackets after ≈: the same amount, converted by molar mass.

Key:
[1] = test system: Moloney murine leukemia virus (MoLV); experiment: in vitro XC plaque assay: inhibition of murine leukemia virus plaque growth (mouse SC-1 cells, rat XC cells); type: cell-based; settings: SC1, compounds added 2 hours prior to virus, read-out: IC50 (concentration giving a 50% inhibition of virus plaque growth)
Experimental: This assay was performed according to the method of Rowe et al. (Virology, 1970, 42, 1136-39) as previously described by L. Hsu, et al. (J. Virological Methods, 1980, 1, 167-77) and T. L. Bowlin and M. R. Proffitt (J. Interferon Res., 983, 3(1), 19-31). Mouse SC-1 cells (fibroblast) (10^5) were seeded into each well of 6-well cluster plates (Costar #3506) in 4 ml Minimum Essential Medium (MEM) with 10% Fetal Calf Serum (FCS). Following an 18 hour incubation period (37° C.), Moloney murine leukemia virus (MoLV) was applied at a predetermined titer to give optimal (i.e. countable) numbers of virus plaques. Compounds were added 2 hours prior to addition of the virus. Three days later the culture medium was removed, the SC-1 cell monolayers were exposed to UV irradiation (1800 ergs), and rat XC cells (10^6) were seeded into each well in 4 ml MEM. Following an additional 3 day incubation (37° C.), these cells were fixed with ethyl alcohol (95%) and stained with 0.3% crystal violet. Plaques were then counted under low magnification. The antiviral activities of various compounds of this invention are tabulated in Table I in terms of the IC50, i,e, the concentration giving a 50% inhibition of virus plaque growth.

HIVlGB8 strain of HIV-1 = experiment: anti-HIV activity in JM T-cells pretreated with HIV-1 (syncytial cell count and p24 antigen); type: cell-based; settings: after 4 days; for Syncytial count: untreated 29
Experimental: To further confirm the antiretroviral activity of these compounds, 6-(4-phenylphenoxy)hexan-1-ol was evaluated for activity against HIV. Following overnight pretreatment of T-cells (JM cells) with the HIVlGB8 strain of HIV-1, 6-(4-phenylphenoxy)hexan-1-ol was added to the cell cultures at concentrations of 15 and 7.5 μg/ml. After 4 days the number of synctial cells in the cell culture and the amount of p24 antigen, also a measure of viral replication, were determined.

[2] = test system: HIV and other retroviruses; settings: previously shown; cited from earlier work

For OCCCCOc1ccc(OCc2ccccc2)cc1 [4-(4-Benzyloxyphenoxy)butan-1-ol, 4-(4-Benzyloxyphenoxy)-butan-1-ol], the IC50 [1] was 1 to 10 µg/mL (≈ 3.67 to 36.7 µM).

Cc1cc(C)c(OCCCCCCO)c(C)c1 [6-(2,4,6-Trimethylphenoxy)hexan-1-ol, 6-(2,4,6-trimethylphenoxy)hexan-1-ol] showed an IC50 [1] of 5 µg/mL (≈ 21.2 µM).

With OCCCCCCOc1ccc2ccccc2c1 [6-(2-Naphthylenyloxy)hexan-1-ol, 6-(2-naphthylenyloxy)hexan-1-ol] the IC50 [1] was 5 to 10 µg/mL (≈ 20.5 to 40.9 µM).

In the case of OCCCCCCOc1ccc(OCc2ccccc2)cc1 [6-(4-Benzyloxyphenoxy)hexan-1-ol], the IC50 [1] is reported as 1 to 10 µg/mL (≈ 3.33 to 33.3 µM).

OCCCCCCOc1ccc(Cc2ccccc2)cc1 [6-(4-Benzylphenoxy)hexan-1-ol] gave an IC50 [1] of 1 to 10 µg/mL (≈ 3.52 to 35.2 µM).

Work on O=C(O)CCC(=O)OCCCCCCOc1ccc(-c2ccccc2)cc1 [6-(4-PhenYlphenoxV)-1-hexYl succinate (monoester)] yielded an IC50 [1] of 1 to 10 µg/mL.

Compound OCCCCCCOc1ccc(-c2ccccc2)cc1 [6-(4-Phenylphenoxy)hexan-1-ol] has an IC50 [1] of 2.5 to 5 µg/mL (≈ 9.25 to 18.5 µM), a Syncytial count (HIVlGB8 strain of HIV-1; 7.5 μg/ml) of 8 and a Syncytial count (HIVlGB8 strain of HIV-1; 15 μg/ml) of 0. The P24 antigen (HIVlGB8 strain of HIV-1; 15 μg/ml, untreated 801) was 62 pg × 10^3 /ml, the inhibition at 7.5 µg/mL (HIVlGB8 strain of HIV-1; Human immunodeficiency virus 1, T-cell, 96 h, 7.5 μg/ml, syncytial count vs untreated) was 72% and the inhibition at 15 µg/mL (HIVlGB8 strain of HIV-1; Human immunodeficiency virus 1, T-cell, 96 h, 15 μg/ml, syncytial count vs untreated) was 100%.

Compound OCCCCCCOc1ccccc1 [6-Phenoxyhexan-1-ol, 6-phenoxyhexan-1-ol] has an IC50 [1] of 1 µg/mL (≈ 5.15 µM).

In the case of O[C@H]1[C@H](O)[C@@H](O)CN2CC[C@H](O)[C@H]12 [castanospermine], the “activity against HIV and other retroviruses” value [2] is listed as “activity against HIV and other retroviruses”.

For heparin, the “activity against HIV and other retroviruses” value [2] is listed as “activity against HIV and other retroviruses”.
